Measurements reported in patent US9387231B2, “Compositions comprising a Brd4 antagonist and methods for the treatment of HIV” (THE CHILDREN'S HOSPITAL OF PHILADELPHIA, priority 2011, dated 2016).

Tests used:
Format in all cases: cell-based
[1] = tested on: HIV (NL43, SG3, BAL1 or BL2); experiment: HIV infection of primary activated CD4 T-cells (p24 by flow cytometry or ELISA)
Text: Primary CD4 T-cells were activated with anti-CD3/28, infected with NL43, SG3, BAL1, or BL2 (FIG. 1A) or NL43 (FIGS. 1B and 1C), and cultured in the presence of the BET antagonist JQ1(+) or the control enantiomer JQ1(−). FIG. 1A provides the expression of p24Gag in cells as determined by flow cytometry. FIGS. 1B and 1C show viral production as measured in culture supernatants by ELISA.
(§1) Primary CD4 T-cells were activated with anti-CD3/28, then infected with HIV, NL43 or SG3, and cultured in the presence of JQ1(+) (1 μM or 0.1 μM) or media. At days 3, 6, 10 and 13 after infection, cell death was measured by percent of FSC/SSC (forward scatter/side scatter) as indicated in individual plots (FIGS. 8A and 8C). The expression of p24 in live cells was examined by flow cytometry and is shown as the percentage of p24+ cells (FIGS. 8B and 8D).
BET antagonists inhibit viral infection in primary activated CD4 T-cells. Specifically, the effect of the BET antagonist JQ1(+) on viral replication was tested in HIV-infected T-cells. Primary activated CD4 T-cells were infected with X4-tropic virus (NL43 or SG3) or R5-tropic virus (BAL1 or BL2) in the presence or absence of JQ1(+) (1 μM). Viral infection was measured by flow cytometry or ELISA at various days after infection.
(§2) Of note, mean fluorescence of p24 was unchanged in the presence of the active inhibitor, indicating there was not a non-specific toxic drug effect and supporting the observation that BET antagonism inhibits HIV production at late time points of infection in primary activated CD4 T-cells.

[2] = tested on: Cdk9 binding to the HIV LTR; experiment: Chromatin immunoprecipitation (ChIP) of HIV LTR DNA, Cdk9; settings: CEMss LTR-GFP cells infected with HIV NL4-3, days 3 to 5, compared to JQ1(−), p<0.001
Method: (§3) FIGS. 7A and 7B show the fold increase in the binding of IgG, RNA polymerase II, or Cdk9 to the HIV LTR in the presence of JQ1(+) or JQ1(−) for early (FIG. 7A) and late (FIG. 7B) HIV-1 transcript. ***p<0.001.
(§4) To further investigate the mechanism of JQ1(+) reactivation of HIV transcription in latently infected T-cells, the binding of RNA polymerase II (PoI II) and p-TEFb (Cdk9/Cyclin T) to the promoter region of HIV LTR was measured using chromatin immunoprecipitation (ChIP). A CEMss reporter cell line stably transfected with GFP under the control of the HIV LTR promoter was used. CEMss LTR-GFP cells were infected with HIV NL4-3 in the presence of JQ1(+) or JQ1(−). At days 3 to 5 of infection, cells were collected and sheared, and formaldehyde cross-linked chromatin extracts were immunoprecipitated with antibodies specific for IgG, RNA polymerase II, or Cdk9. The abundance of HIV LTR DNA in immunoprecipitates was assessed by qPCR with two sets of primers specific for early or late regions of the HIV LTR.

Primary CD4 T-cells = experiment: Cell death of HIV-infected primary CD4 T-cells (FSC/SSC); settings: primary activated CD4 T-cells infected with NL43 or SG3, 0.1 μM, days 3-13
Method: as §1, §2

HIV (NL43, SG3) = experiment: Viral production and p24Gag expression in HIV-infected CEMss LTR-GFP cells
HIV-1 NL43 = experiment: Viral integration in primary resting CD4 T-cells by Alu-PCR; settings: for provirus/cell: NL43, 1 μM, T48 h, listed as JQ(+)
Method: To determine if JQ1(+) affects viral integration in primary resting CD4 T-cells, the cells were purified and infected with HIV-1 NL43 or mock control. The infected cells were then cultured in the presence of 1 μM of JQ1(+) or JQ1(−) for 48 hours. Cell pellets were collected at 0 hours and 48 hours after infection. DNA was isolated and the viral integration in resting CD4 T-cells was measured by Alu-PCR.

[3] = tested on: RNA polymerase II binding to the HIV LTR; experiment: Chromatin immunoprecipitation (ChIP) of HIV LTR DNA, RNA polymerase II; settings: CEMss LTR-GFP cells infected with HIV NL4-3, days 3 to 5, compared to JQ1(−), p<0.001
Method: as §3, §4

## Cc1sc2c(c1C)C(c1ccc(Cl)cc1)=N[C@@H](CC(=O)OC(C)(C)C)c1nnc(C)n1-2 [JQ1(+), tert-butyl 2-((6S)-4-(4-chlorophenyl)-2,3,9-trimethyl-6H-thieno[3,2-f][1,2,4]triazolo[4,3-a][1,4]diazepin-6-yl)acetate]
[1]; primary CD4 T-cells, NL43, 0.1 μM
  Viral infection at low concentration: inhibition of viral infection was also observed
[1]; primary CD4 T-cells, NL43, days 3 and 6 after infection, p<0.05
  HIV infection (viral production, ELISA): significantly inhibited
[1]; primary activated CD4 T-cells, NL43 or SG3, 0.1 μM
  Relative number of virus-expressing cells (percentage of p24+ cells): still suppressed
[1]; primary activated CD4 T-cells, X4-tropic (NL43, SG3) or R5-tropic (BAL1, BL2) virus, 1 μM, flow cytometry or ELISA, various days
  Levels of infection: decrease
[1]; primary activated CD4 T-cells, in the presence of the active inhibitor
  Mean fluorescence of p24: unchanged
[2]
  Binding of Cdk9 to the HIV LTR: significantly increased
Primary CD4 T-cells
  Cell death: did not cause cell death above control values
HIV (NL43, SG3); CEMss LTR-GFP cells infected with SG3, day 5 post-infection, flow cytometry
  Relative number of Gag-expressing live GFP+ cells: significantly decreased
HIV (NL43, SG3); CEMss LTR-GFP cells, HIV NL4-3, 0.25 μM, day 6 after infection, ELISA
  Production of p24 in supernatants: decreased below control values
HIV (NL43, SG3); CEMss LTR-GFP cells, NL43, 1 μM, day 3 after infection
  Expression of p24Gag in the infected cells (ratio of p24+ in GFP+ population): decreased
HIV (NL43, SG3); CEMss LTR-GFP cells, NL43, 1 μM, day 6 after infection
  Viral production (p24Gag in supernatants, ELISA): decreased
HIV-1 NL43; Exp. 1, primary resting CD4 T-cells
  provirus/cell: 0.559 ± 0.005 provirus/cell
HIV-1 NL43; Exp. 2, primary resting CD4 T-cells
  provirus/cell: 0.444 ± 0.120 provirus/cell
HIV-1 NL43; primary resting CD4 T-cells, 1 μM, 48 hours, Alu-PCR
  Viral integration: does not significantly affect
[3]
  Binding of RNA Pol II to the HIV LTR: significantly increased
